We go through 4 sequences from US20060154243A1 (priority 2003, published 2006).

Among the test systems are serum 37 (individual 37); serum 62 (individual 62); serum 6 (individual 6); serum SARS-yellow; serum SARS-green; serum 2 (individual 2); serum London.
Common to all, as to format: binding, human
For assay [1], the system named is control serum Blood-bank (commercial negative donor pooled serum).
For assay [2], the system named is serum 1a (individual 1, early serum).
Assay [3] concerns serum 1b (individual 1, late serum).
Assay [4] has as its system control serum LUMC (pooled serum of ten healthy hospital workers).

For the sequence APHHVVAVIQEIQLL, in the assay on serum 37 (individual 37), the “Binding of serum 37 to linear peptides of Orf14 of SARS-CoV TOR2” value came to 0.5. Also, in the assay on serum 62 (individual 62), the “Binding of serum 62 to linear peptides of Orf14 of SARS-CoV TOR2” value was determined as 0.3. For the same sequence, the “Binding of serum 6 to linear peptides of Orf14 of SARS-CoV TOR2” value with serum 6 (individual 6) was 0.4. Also, in the assay with serum SARS-yellow, the “Binding of serum SARS-yellow to linear peptides of Orf14 of SARS-CoV TOR2” value (“Binding of serum SARS-yellow” below) is recorded as 0.3. Also, the “Binding of serum SARS-green to linear peptides of Orf14 of SARS-CoV TOR2” value (“Binding of serum SARS-green” below) in the assay with serum SARS-green stood at 0.1. For the same sequence, in [1], the “Control Serum Blood-Bank Looped peptides” value worked out at 0.6 and the “Control serum Blood-bank linear peptides” value amounted to 0.3. Further, the “Binding of serum 2 to linear peptides of Orf14 of SARS-CoV TOR2” value with serum 2 (individual 2) is 0.4. In [2], the “Binding of serum 1a to linear peptides of Orf14 of SARS-CoV TOR2” value (shortened to “Binding of serum 1a”) turned out to be 0.5. Besides, the “Binding of serum London to linear peptides of Orf14 of SARS-CoV TOR2” value (“Binding of serum London” for short) with serum London is 0.3. Besides, in assay [3], the “Binding of serum 1b to linear peptides of Orf14 of SARS-CoV TOR2” value (“Binding of serum 1b” below) is 0.4. Moreover, in assay [4], the “Control serum LUMC linear peptides” value is given as 0.6 and the “Control serum LUMC looped peptides” value is listed as 0.5.
In the case of EILLLEWLAEVVKLP, in the assay on serum 37 (individual 37), the “Binding of serum 37 to linear peptides of Orf14 of SARS-CoV TOR2” value was found to be 0.6. Also, in the assay with serum 62 (individual 62), the “Binding of serum 62 to linear peptides of Orf14 of SARS-CoV TOR2” value came to 0.5. In addition, the “Binding of serum 6 to linear peptides of Orf14 of SARS-CoV TOR2” value in the assay with serum 6 (individual 6) was found to be 0.7. In the assay with serum SARS-yellow, the “Binding of serum SARS-yellow” value was 0.4. Besides, the “Binding of serum SARS-green” value in the assay with serum SARS-green came out at 0.4. For the same sequence, in assay [1], the “Control Serum Blood-Bank Looped peptides” value is on record as 0.7 and the “Control serum Blood-bank linear peptides” value is 0.7. The “Binding of serum 2 to linear peptides of Orf14 of SARS-CoV TOR2” value with serum 2 (individual 2) worked out at 0.5. In assay [2], the “Binding of serum 1a” value was found to be 0.5. The “Binding of serum London” value in the assay with serum London turned out to be 0.7. For the same sequence, the “Binding of serum 1b” value in assay [3] is reported as 0.5. In addition, in assay [4], the “Control serum LUMC linear peptides” value was 0.6 and the “Control serum LUMC looped peptides” value worked out at 0.6.
As to PLLAPHHVVAVIQEI, the “Binding of serum 37 to linear peptides of Orf14 of SARS-CoV TOR2” value in the assay on serum 37 (individual 37) was 0.6. Besides, in the assay with serum 62 (individual 62), the “Binding of serum 62 to linear peptides of Orf14 of SARS-CoV TOR2” value was found to be 0.4. In the assay with serum 6 (individual 6), the “Binding of serum 6 to linear peptides of Orf14 of SARS-CoV TOR2” value came out at 0.4. For the same sequence, the “Binding of serum SARS-yellow” value with serum SARS-yellow stood at 0.4. Also, in the assay with serum SARS-green, the “Binding of serum SARS-green” value stood at 0.2. In addition, in assay [1], the “Control Serum Blood-Bank Looped peptides” value amounted to 0.6 and the “Control serum Blood-bank linear peptides” value stood at 0.4. In the assay with serum 2 (individual 2), the “Binding of serum 2 to linear peptides of Orf14 of SARS-CoV TOR2” value is given as 0.4. In addition, the “Binding of serum 1a” value in assay [2] turned out to be 0.5. Besides, the “Binding of serum London” value in the assay on serum London came out at 0.5. Also, in assay [3], the “Binding of serum 1b” value turned out to be 0.4. Moreover, in assay [4], the “Control serum LUMC linear peptides” value was determined as 0.5 and the “Control serum LUMC looped peptides” value turned out to be 0.6.
With IQEIQLLAAVGEILL, the “Binding of serum 37 to linear peptides of Orf14 of SARS-CoV TOR2” value in the assay with serum 37 (individual 37) amounted to 0.7. In the assay on serum 62 (individual 62), the “Binding of serum 62 to linear peptides of Orf14 of SARS-CoV TOR2” value was found to be 0.4. For the same sequence, the “Binding of serum 6 to linear peptides of Orf14 of SARS-CoV TOR2” value in the assay with serum 6 (individual 6) was determined as 0.4. Also, the “Binding of serum SARS-yellow” value in the assay on serum SARS-yellow amounted to 0.4. For the same sequence, in the assay with serum SARS-green, the “Binding of serum SARS-green” value is 0.3. In addition, in [1], the “Control Serum Blood-Bank Looped peptides” value is given as 0.6 and the “Control serum Blood-bank linear peptides” value worked out at 0.4. Also, the “Binding of serum 2 to linear peptides of Orf14 of SARS-CoV TOR2” value in the assay on serum 2 (individual 2) is on record as 0.4. Further, in assay [2], the “Binding of serum 1a” value worked out at 0.5. In addition, in the assay with serum London, the “Binding of serum London” value was determined as 0.3. Also, in assay [3], the “Binding of serum 1b” value turned out to be 0.4. Moreover, in assay [4], the “Control serum LUMC linear peptides” value came to 0.6 and the “Control serum LUMC looped peptides” value is reported as 0.5.
